The record followed here is patent US10487068B2, “Pyridazine derivatives as RORc modulators” (Genentech, Inc., priority 2015, dated 2019).

Broadly, the IC50 is the concentration at which inhibition is half-maximal. A lower IC50 goes with inhibition by little substance.

Structures are written as SMILES.

The target of this test is T1, RORc ligand binding domain (Homo sapiens, UniProt P51449).
T1 sequence (P51449 269-508 limits assumed): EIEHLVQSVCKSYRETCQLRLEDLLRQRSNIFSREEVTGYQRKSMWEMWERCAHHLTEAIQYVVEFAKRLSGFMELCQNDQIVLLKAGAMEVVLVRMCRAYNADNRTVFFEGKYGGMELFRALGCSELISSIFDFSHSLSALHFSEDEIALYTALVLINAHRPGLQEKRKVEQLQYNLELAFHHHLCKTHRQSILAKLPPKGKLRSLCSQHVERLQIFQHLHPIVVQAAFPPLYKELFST
The test can be described thus: In Vitro RORc Ligand Binding Assay. The conditions noted are these: RORc IC50, radioligand 25-[3H]hydroxycholesterol 6 nM; 0.6 ug/mL RORc receptor; 3 h at 25° C.

As to `C[C@@H](O)c1nnc(-c2cncc([C@@]34CC[C@@H](c5cc(-c6c(F)cccc6F)nnc53)C4(C)C)n2)[nH]1` [Example 225, (R)-1-(5-(6-((5R,8S)-3-(2,6-difluorophenyl)-9,9-dimethyl-5,6,7,8-tetrahydro-5,8-methanocinnolin-8-yl)pyrazin-2-yl)-4H-1,2,4-triazol-3-yl)ethanol], the IC50 was 21 nM. The compound `CC1(C)[C@H]2CC[C@]1(c1cc(=O)[nH]cn1)c1nnc(-c3c(F)cccc3F)cc12` [Example 226, 6-((5R,8S)-3-(2,6-difluorophenyl)-9,9-dimethyl-5,6,7,8-tetrahydro-5,8-methanocinnolin-8-yl)pyrimidin-4(3H)-one] displayed an IC50 of 363 nM. `Cc1nc(C#N)ncc1[C@@]12CC[C@@H](c3cc(-c4c(F)cccc4F)nnc31)C2(C)C` [Example 227, 5-((5R,8S)-3-(2,6-difluorophenyl)-9,9-dimethyl-5,6,7,8-tetrahydro-5,8-methanocinnolin-8-yl)-4-methylpyrimidine-2-carbonitrile]: the IC50 is 717 nM. The value for `Cc1cc([C@@]23CC[C@@H](c4cc(-c5c(F)cccc5F)nnc42)C3(C)C)nc(C#N)n1` [Example 228] was 15.3 nM; that for `CC1(C)[C@H]2CC[C@]1(c1cccc(-c3cn[nH]c3)n1)c1nnc(-c3c(F)cccc3F)cc12` [Example 229] was 3 nM. The value for `CC1(C)[C@H]2CC[C@]1(c1nc(C(=O)NCCO)ncc1Cl)c1nnc(-c3c(F)cccc3F)cc12` [Example 230] was 55.2 nM.

Compound `CC1(C)[C@H]2CC[C@]1(c1cncc(-n3ccnc3)n1)c1nnc(-c3c(F)cccc3F)cc12` [Example 231] showed an IC50 of 6.3 nM. `CC1(C)[C@H]2CC[C@]1(c1ccnc(-n3cnc(C(N)=O)n3)n1)c1nnc(-c3c(F)cccc3F)cc12` [Example 232] displayed an IC50 of 27.9 nM. With `CC1(C)[C@H]2CC[C@]1(c1nc(C#N)ncc1Cl)c1nnc(-c3c(F)cccc3F)cc12` [Example 233] the figure was 13.8 nM; with `CC(C)(O)c1nnc(-c2ncc(F)c([C@@]34CC[C@@H](c5cc(-c6c(F)cccc6F)nnc53)C4(C)C)n2)[nH]1` [Example 234], 36.6 nM.

`CC1(C)[C@H]2CC[C@]1(c1cc(-c3cnc(CO)o3)ccn1)c1nnc(-c3c(F)cccc3F)cc12` [Example 235] displayed an IC50 of 9.4 nM. Compound `CC1(C)[C@H]2CC[C@]1(c1cncc(-n3cnc(CO)c3)n1)c1nnc(-c3c(F)cccc3F)cc12` [Example 236] yielded an IC50 of 5.8 nM. `CC1(C)[C@H]2CC[C@]1(c1cccc(C(O)CO)n1)c1nnc(-c3c(F)cccc3F)cc12` (stereo partly drawn) [Example 237, 1-(6-((5R,8S)-3-(2,6-difluorophenyl)-9,9-dimethyl-5,6,7,8-tetrahydro-5,8-methanocinnolin-8-yl)pyridin-2-yl)ethane-1,2-diol] gave an IC50 of 2.6 nM. For `CC1(C)[C@H]2CC[C@]1(c1ccnc(-n3cc(CO)cn3)n1)c1nnc(-c3c(F)cccc3F)cc12` [Example 238], the IC50 stood at 39.4 nM. The value for `CC(C)(O)c1cn(-c2nccc([C@@]34CC[C@@H](c5cc(-c6c(F)cccc6F)nnc53)C4(C)C)n2)cn1` [Example 239] was 13.9 nM; that for `CC(C)(O)c1coc(-c2cccc([C@@]34CC[C@@H](c5cc(-c6c(F)cccc6F)nnc53)C4(C)C)n2)n1` [Example 240, 2-(2-(6-((5R,8S)-3-(2,6-difluorophenyl)-9,9-dimethyl-5,6,7,8-tetrahydro-5,8-methanocinnolin-8-yl)pyridin-2-yl)oxazol-4-yl)propan-2-ol] was 4.5 nM. `Cc1cc(-c2ccnc([C@@]34CC[C@@H](c5cc(-c6c(F)cccc6F)nnc53)C4(C)C)n2)on1` [Example 241, 5-(2-((5R,8R)-3-(2,6-difluorophenyl)-9,9-dimethyl-5,6,7,8-tetrahydro-5,8-methanocinnolin-8-yl)pyrimidin-4-yl)-3-methylisoxazole] returned an IC50 of 11 nM. The value for `CC1(C)[C@H]2CC[C@]1(c1c(Br)cnc(C#N)c1F)c1nnc(-c3c(F)cccc3F)cc12` [Example 242, 5-bromo-4-((5R,8S)-3-(2,6-difluorophenyl)-9,9-dimethyl-5,6,7,8-tetrahydro-5,8-methanocinnolin-8-yl)-3-fluoropicolinonitrile] was 5 nM. The value for `CC1(C)[C@H]2CC[C@]1(c1cncc(-n3cc(CO)cn3)n1)c1nnc(-c3c(F)cccc3F)cc12` [Example 243, (1-(6-((5R,8S)-3-(2,6-difluorophenyl)-9,9-dimethyl-5,6,7,8-tetrahydro-5,8-methanocinnolin-8-yl)pyrazin-2-yl)-1H-pyrazol-4-yl)methanol] was 11.7 nM. `CC1(C)[C@H]2CC[C@]1(c1cc(-c3c[nH]c(=O)[nH]3)ccn1)c1nnc(-c3c(F)cccc3F)cc12` [Example 244]: the IC50 amounted to 120 nM. With `CC1(C)[C@@H]2CC[C@@]1(c1nc(C#N)ncc1Cl)c1nnc(-c3c(F)cccc3F)cc12` [Example 245] the figure was 26.4 nM; with `CC1(C)[C@H]2CC[C@]1(c1cncc(-c3ccn[nH]3)n1)c1nnc(-c3c(F)cccc3F)cc12` [Example 246], 8.4 nM; with `CC(C)(O)c1cc(-c2cncc([C@@]34CC[C@@H](c5cc(-c6c(F)cccc6F)nnc53)C4(C)C)n2)[nH]n1` [Example 247, 2-(5-(6-((5R,8S)-3-(2,6-difluorophenyl)-9,9-dimethyl-5,6,7,8-tetrahydro-5,8-methanocinnolin-8-yl)pyrazin-2-yl)-1H-pyrazol-3-yl)propan-2-ol], 20 nM. The value for `CC(C)(O)c1noc(-c2cncc([C@@]34CC[C@@H](c5cc(-c6c(F)cccc6F)nnc53)C4(C)C)n2)n1` [Example 248, 2-(5-(6-((5R,8S)-3-(2,6-difluorophenyl)-9,9-dimethyl-5,6,7,8-tetrahydro-5,8-methanocinnolin-8-yl)pyrazin-2-yl)-1,2,4-oxadiazol-3-yl)propan-2-ol] was 27 nM; that for `CC(C)(O)c1nnc(-c2ncc(Cl)c([C@@]34CC[C@@H](c5cc(-c6c(F)cccc6F)nnc53)C4(C)C)n2)[nH]1` [Example 249] was 50.1 nM. `CC1(C)[C@H]2CC[C@]1(c1nc(C(N)=O)ncc1F)c1nnc(-c3c(F)cccc3F)cc12` [Example 250] had an IC50 of 22.8 nM.

With `CC1(C)[C@H]2CC[C@]1(c1ccnc(-c3ccn[nH]3)n1)c1nnc(-c3c(F)cccc3F)cc12` [Example 251], the IC50 is 9.8 nM. With `CC1(C)[C@H]2CC[C@]1(c1ccnc(-n3ccc(CO)n3)n1)c1nnc(-c3c(F)cccc3F)cc12` [Example 252], the IC50 was found to be 19.3 nM. With `CC1(C)[C@H]2CC[C@]1(c1ccnc(-c3cn[nH]c3)n1)c1nnc(-c3c(F)cccc3F)cc12` [Example 253] the figure was 5.7 nM; with `CC1(C)[C@H]2CC[C@]1(c1ccnc(-c3cccnc3)n1)c1nnc(-c3c(F)cccc3F)cc12` [Example 254], 4.4 nM. With `Cc1ncn(-c2cncc([C@@]34CC[C@@H](c5cc(-c6c(F)cccc6F)nnc53)C4(C)C)n2)n1` [Example 255] the figure was 8.6 nM; with `CC(C)(O)c1nc(-c2cncc([C@@]34CC[C@@H](c5cc(-c6c(F)cccc6F)nnc53)C4(C)C)n2)no1` [Example 256, 2-(3-(6-((5R,8S)-3-(2,6-difluorophenyl)-9,9-dimethyl-5,6,7,8-tetrahydro-5,8-methanocinnolin-8-yl)pyrazin-2-yl)-1,2,4-oxadiazol-5-yl)propan-2-ol], 10.1 nM.

For `C[C@H](O)c1nnc(-c2ncc(F)c([C@@]34CC[C@@H](c5cc(-c6c(F)cccc6F)nnc53)C4(C)C)n2)[nH]1` [Example 257], the IC50 is 22.6 nM. As for `C[C@@H](O)c1nnc(-c2ncc(F)c([C@@]34CC[C@@H](c5cc(-c6c(F)cccc6F)nnc53)C4(C)C)n2)[nH]1` [Example 258], the IC50 amounted to 21.6 nM. Take `CC(C)(O)c1cc(-c2cncc([C@@]34CC[C@@H](c5cc(-c6c(F)cccc6F)nnc53)C4(C)C)n2)no1` [Example 259, 2-(3-(6-((5R,8S)-3-(2,6-difluorophenyl)-9,9-dimethyl-5,6,7,8-tetrahydro-5,8-methanocinnolin-8-yl)pyrazin-2-yl)isoxazol-5-yl)propan-2-ol]: the IC50 stood at 8.7 nM. The value for `CC(C)(O)c1nnc(-c2cncc([C@@]34CC[C@@H](c5cc(-c6c(F)cccc6F)nnc53)C4(C)C)n2)o1` [Example 260, 2-(5-(6-((5R,8S)-3-(2,6-difluorophenyl)-9,9-dimethyl-5,6,7,8-tetrahydro-5,8-methanocinnolin-8-yl)pyrazin-2-yl)-1,3,4-oxadiazol-2-yl)propan-2-ol] was 12.4 nM; that for `CC1(C)[C@H]2CC[C@]1(c1ccnc(-n3cnc(C(N)=O)c3)n1)c1nnc(-c3c(F)cccc3F)cc12` [Example 261] was 11.7 nM; that for `CC(C)(O)c1nnc(-c2nccc([C@@]34CC[C@@H](c5cc(-c6c(F)cccc6F)nnc53)C4(C)C)n2)[nH]1` [Example 262] was 37.4 nM. `C[C@H](O)c1nnc(-c2nccc([C@@]34CC[C@@H](c5cc(-c6c(F)cccc6F)nnc53)C4(C)C)n2)[nH]1` [Example 263] yielded an IC50 of 20.8 nM. Compound `C[C@@H](O)c1nnc(-c2nccc([C@@]34CC[C@@H](c5cc(-c6c(F)cccc6F)nnc53)C4(C)C)n2)[nH]1` [Example 264] had an IC50 of 32.3 nM. In turn, `Cc1cc(-c2ccnc([C@@]34CC[C@@H](c5cc(-c6c(F)cccc6F)nnc53)C4(C)C)n2)no1` [Example 266, 3-(2-((5R,8R)-3-(2,6-difluorophenyl)-9,9-dimethyl-5,6,7,8-tetrahydro-5,8-methanocinnolin-8-yl)pyrimidin-4-yl)-5-methylisoxazole] returned an IC50 of 4.3 nM. With `Cc1ncn(-c2ncc(F)c([C@@]34CC[C@@H](c5cc(-c6c(F)cccc6F)nnc53)C4(C)C)n2)n1` [Example 267] the figure was 17.3 nM.
